Measured values taken from PubChem BioAssay AID1626 (SRMLSC, 2009).
pIC50: −log10 of the molar value.

Tested on: M. tuberculosis H37Rv growth inhibition
Test: M. tuberculosis H37Rv growth inhibitors, H37Rv strain (AID 1626)
Conditions: for IC90: measured here: IC90 against H37Rv; for CC50: measured here: Vero cell cytotoxicity

CCC(=O)Nc1cccc(C(=O)/C=C/c2ccccc2)c1
pIC50: 4.66 | IC90: 28.2 µM | CC50: 10.7 µM

COc1ccc(OCC(O)Cn2c(=N)n(CCN3CCCCC3)c3ccccc32)cc1 (stereo unspecified)
pIC50: 5.21 | IC90: 6.86 µM | CC50: > 40 µM

N#Cc1nc(-c2cccs2)oc1NCCc1ccccc1
pIC50: 5.70 | IC90: 5.43 µM

N#C/C(=C\c1c[nH]c2ccccc12)C(=O)Nc1ncc(Cc2ccc(Cl)cc2Cl)s1
pIC50: 4.93 | IC90: 13.5 µM | CC50: > 40 µM

COc1ccc(-c2nnc(SC(C(=O)c3c[nH]c4ccccc34)c3ccccc3)n2N)cc1OC (stereo unspecified)
IC90: > 100 µM | CC50: > 40 µM

O=C1CCCCc2sc(Br)c([N+](=O)[O-])c2N1
pIC50: 5.07 | IC90: 15.4 µM | CC50: 14.4 µM

CCCOC(=O)c1ccc(NC(=O)c2ccc(Br)o2)cc1
pIC50: 6.17 | IC90: 2.82 µM

CCc1ccc(NC(=O)CSc2ccccn2)cc1
pIC50: 4.66 | IC90: > 100 µM

C=C1C(=O)O[C@@H]2C[C@@H](C)[C@@H]3C=CC(=O)[C@@]3(C)[C@@H](OC(=O)CC(=O)O[C@H]3[C@@H]4C(=C)C(=O)O[C@@H]4C[C@@H](C)[C@@H]4C=CC(=O)[C@]43C)[C@H]12
pIC50: 5.83 | IC90: 3.35 µM | CC50: 1.4 µM

COc1cc(-c2cc(C(=O)Nc3nc4ccccc4s3)c3ccccc3n2)cc(OC)c1OC
IC90: > 100 µM | CC50: > 40 µM

Cc1c(-c2cccc(Cl)c2)nc2ccccc2c1C(=O)OCC(=O)Nc1ccc2c(c1)OCO2
pIC50: 4.96 | IC90: > 100 µM | CC50: 38.8 µM

CCOC(=O)c1ccc(NC(=O)CSc2ccc(-c3cccnc3)nn2)cc1
pIC50: 4.54 | IC90: > 100 µM | CC50: > 40 µM

CCOC(=O)c1c(NC(=O)C2COc3ccccc3O2)sc2c1CC(C)(C)NC2(C)C (stereo unspecified)
pIC50: 4.90 | IC90: 13.7 µM

COc1ccc(/C=C2\SC(=N)N(c3nccs3)C2=O)cc1OC
pIC50: > 6.71 | IC90: > 100 µM | CC50: 17.9 µM

CCOc1ccc(N2C(=O)c3ccc(C(=O)OCC(=O)N(CC)C4CCS(=O)(=O)C4)cc3C2=O)cc1 (stereo unspecified)
IC90: > 100 µM

O=C(Nc1ccc(-c2nc3ccccc3c(=O)o2)cc1)c1ccco1
pIC50: > 6.71 | IC90: > 100 µM

COc1ccc(N=CC2=C(O)CCCC2=O)cc1
pIC50: 4.35 | IC90: > 100 µM

Cc1nc2c(-c3ccc(Cl)cc3)c(C)[nH]n2c(=O)c1Cc1ccccc1
pIC50: 5.70 | IC90: 9.69 µM | CC50: 4.04 µM

COC(=O)c1ccc(NC(=O)CSC2=NCCN2)cc1
IC90: > 100 µM

COc1ccc(Nc2ccccc2N)cc1
pIC50: 5.98 | IC90: 2.46 µM

CC1CCC(C(C)C)C(OC(=O)Cn2c(-c3ccc(F)cc3)[n+](C)c3ccccc32)C1 (stereo unspecified)
pIC50: 5.16 | IC90: 11.4 µM

CCC(/C=C1\Sc2ccc(OC)cc2N1CCO)=C\c1sc2ccc(OC)cc2[n+]1CCO
pIC50: 5.14 | IC90: 10.2 µM

Cc1cc(NC(=O)CCN2C(=O)C3C4C=CC(C4)C3C2=O)ccc1Br (stereo unspecified)
pIC50: 4.45 | IC90: > 100 µM

Cc1cc(Cl)cc(C)c1OCCCCn1ccnc1
pIC50: 5.03 | IC90: 12.7 µM | CC50: > 40 µM

Cc1ccc(NC2=C/C(=N\S(=O)(=O)c3cccs3)c3ccccc3C2=O)c(C)c1
pIC50: 5.41 | IC90: 5.64 µM | CC50: 3.74 µM

COC(=O)c1cccc(OC(N)=O)c1
pIC50: 4.14 | IC90: > 100 µM

CCOc1ccc(N/C(C)=C/C(=O)c2ccc(C)o2)cc1
pIC50: 4.88 | IC90: > 100 µM

Cc1ccc(C(=O)Nc2nnc(-c3ccco3)o2)cc1C
pIC50: > 6.71 | IC90: > 100 µM | CC50: > 40 µM

CCOC(=O)c1ccc(N2CSC3=C(C#N)C(c4cccs4)CC(=O)N3C2)cc1 (stereo unspecified)
pIC50: 4.52 | IC90: > 100 µM

Fc1ccc(C(c2ccc(F)cc2)N2CCN(C/C=C/c3ccccc3)CC2)cc1
pIC50: 5.10 | IC90: 10.1 µM | CC50: > 40 µM

CC(C)(C)C(=O)/C=c1\s/c(=C\c2ccc(-c3ccc([N+](=O)[O-])cc3)o2)c(=O)n1CC(=O)NC(N)=O
IC90: > 100 µM | CC50: > 40 µM

CCOC(=O)c1ccc(Nc2cc3ccccc3c(=O)[nH]2)cc1
pIC50: 4.87 | IC90: > 100 µM

Cc1cc(C)n2c(SCc3ccc(Br)cc3)nnc2n1
CC50: > 40 µM

Cc1cccc(C)c1OCC(=O)Nc1cccc(-c2nnc(-c3ccccc3)o2)c1
pIC50: 4.97 | IC90: > 100 µM | CC50: > 40 µM

CC(C)c1cc(NC(=O)CCl)on1
pIC50: 4.86 | IC90: 32.6 µM | CC50: 16.7 µM

Cc1ccc(C(=O)N2CCN(c3ccc(NC(=O)COc4ccccc4C)cc3)CC2)cc1
pIC50: 5.02 | IC90: > 100 µM | CC50: > 40 µM

Nc1ccc2oc(-c3cc(Br)ccc3Cl)nc2c1
pIC50: 4.73 | IC90: > 100 µM

O=C(NC(Nc1nc2ccc([N+](=O)[O-])cc2s1)(C(F)(F)F)C(F)(F)F)c1ccccc1Cl
pIC50: 5.66 | IC90: 4.17 µM | CC50: 1 µM

O=C(Nc1nc(-c2cc(F)ccc2F)cs1)c1ccccn1
pIC50: 5.42 | IC90: 67.8 µM | CC50: 21.2 µM

Cc1ccc(-n2c(-c3ccc(Br)cc3)c[n+]3c2CCc2ccc4cccnc4c2-3)cc1
pIC50: 6.12 | IC90: 1.07 µM | CC50: 5.51 µM

O=C(CCl)NC1CCCc2ccccc21 (stereo unspecified)
pIC50: 4.69 | IC90: > 100 µM | CC50: 32.5 µM

Cc1cc(OCCCCCn2ccnc2)cc(C)c1Cl
pIC50: 5.38 | IC90: 5.19 µM | CC50: 24.6 µM

CC(C)(C)n1c(O)c(C=Nc2ccc3c(c2)CCC3)c(=O)[nH]c1=O
pIC50: 4.42 | IC90: > 100 µM | CC50: > 40 µM

Cc1cc(NC(=O)C2CCCCC2)n(-c2nc3ccccc3[nH]2)n1
pIC50: 5.59 | IC90: 5.5 µM | CC50: 38 µM

COc1cc(-c2nnc(SCC(=O)OC3CCCCC3)o2)cc(OC)c1OC
pIC50: > 6.71 | IC90: 1.78 µM

CCn1ccnc1CN(C)Cc1cn(-c2cccc(C)c2)nc1-c1cccc(F)c1
pIC50: 5.59 | IC90: 4.19 µM | CC50: > 40 µM

Cc1ccc2nc(/N=C(\N)NC(=O)NC3CCCCC3)nc(C)c2c1
pIC50: 5.23 | IC90: 6.73 µM | CC50: 25.3 µM

O=C(/C=C/c1ccc(Br)cc1)c1ccco1
pIC50: 4.84 | IC90: 21.3 µM | CC50: > 40 µM

CCOC(=O)C1(CCc2ccccc2)CCN(Cc2ccccn2)CC1
pIC50: 4.71 | IC90: > 100 µM

C[n+]1c2n(c3ccccc31)N=C(c1cc(C(C)(C)C)c(O)c(C(C)(C)C)c1)CS2
pIC50: 5.60 | IC90: 3.14 µM | CC50: > 40 µM

O=C1CCNc2ccc(-c3ccccc3)cc21
IC90: > 100 µM

O=C(CSCc1nc2ccccc2[nH]1)Nc1ccc(Oc2ccccc2)cc1
pIC50: 4.64 | IC90: > 100 µM | CC50: > 40 µM

CCOC(=O)/C=C/C(=O)Nc1nccs1
IC90: > 100 µM

Cc1ccc(-c2nc3c(cnn3-c3ccccc3)c(=O)o2)cc1
pIC50: 5.21 | IC90: 13.4 µM

N=c1c2c(-c3ccccc3)c(-c3ccccc3)n(Cc3ccco3)c2ncn1Cc1ccccc1
pIC50: 5.56 | IC90: 3.17 µM | CC50: 6.49 µM

O=C(Nc1ccc(-c2csnn2)cc1)C(Cl)(Cl)Cl
pIC50: > 6.71 | IC90: > 100 µM

Brc1c(CSc2nncc3ccccc23)nc2ccccn12
pIC50: 5.25 | IC90: 16.3 µM | CC50: > 40 µM

COc1cc(CNc2ccc(N3CCN(C(C)=O)CC3)cc2)ccc1OCc1ccc(F)cc1
CC50: > 40 µM

CC(=O)n1cc(N(C(=O)CCl)c2ccccc2)c2ccccc21
pIC50: 5.51 | IC90: 7.33 µM | CC50: 0.792 µM

COc1cccc(C(=O)Nc2ccc(-c3nc4ccccc4o3)c(O)c2)c1
pIC50: 5.06 | IC90: > 100 µM | CC50: > 40 µM

N#CC1=C(S)N(c2ccccc2)C(c2ccc(-c3ccc(Cl)c(Cl)c3)o2)NC1=O (stereo unspecified)
pIC50: 4.39 | IC90: > 100 µM

CC(C)Cc1cc(C(=O)Nc2cc(Br)ccc2O)no1
pIC50: 5.41 | IC90: > 100 µM | CC50: 26.5 µM

FC(F)(F)c1ccc(CN2C[C@@H]3C(c4ccc(Cl)nc4)C4(c5cccnc5)CC3(C4)[C@H]2c2ccccc2)cc1 (stereo partly specified)
pIC50: 5.05 | IC90: 18 µM | CC50: > 40 µM

CCCCCCCCSc1nnc(CSc2nc3nc(C)cc(C)n3n2)o1
pIC50: 6.20 | IC90: 24.6 µM

CN(C)CCCNc1cc(C(C)(C)C)nc2c(-c3ccc(Cl)cc3)cnn12
pIC50: 6.06 | IC90: 1.37 µM | CC50: 9.25 µM

O=[N+]([O-])c1cc(Cl)c(O)c2ncccc12
pIC50: 4.79 | IC90: 24.7 µM | CC50: 21.7 µM

COC(=O)CCCn1c(C)cc(C(=O)CCl)c1C
pIC50: 5.26 | IC90: 18.4 µM | CC50: 21.1 µM

CCOc1ccc(CN(C)C(=O)CCl)cc1
pIC50: 4.57 | IC90: > 100 µM | CC50: 12.7 µM

Cc1ccc2c(c1)c1c(n2CC(O)CNC2CCCCC2)CCCC1 (stereo unspecified)
pIC50: 5.17 | IC90: 10.2 µM | CC50: 15.1 µM

Cn1c(O)c(C=Nc2ccc3c(c2)CCC3)c(=O)n(C)c1=O
IC90: > 100 µM

FC(F)(F)c1cccc(Sc2nc(-c3ccccc3)nnc2C(F)(F)F)c1
pIC50: 5.14 | IC90: > 100 µM | CC50: > 40 µM

COC(=O)CSc1nc(-c2ccccc2)c2c(c1C#N)CCCC2
pIC50: 5.28 | IC90: 8.33 µM

COc1cc(/C=N/NC(=Nc2ccc(C)cc2)c2nc3ccccc3s2)ccc1O
IC90: > 100 µM | CC50: > 40 µM

CCCCNC(=O)COC(=O)c1cc(F)c(F)cc1Cl
pIC50: 5.21 | IC90: > 100 µM

COc1cccc(C(=O)Nc2ccc3nc(N4CCN(c5ncccn5)CC4)cc(C)c3c2)c1OC
pIC50: > 6.71 | IC90: 1.72 µM | CC50: 15.2 µM

CCOc1ccc(NC(=O)c2ccc(NC(=O)c3cn4c5c(c(N6CCN(C)CC6)c(F)cc5c3=O)OCC4C)cc2)cc1 (stereo unspecified)
pIC50: 5.55 | IC90: 3.17 µM | CC50: > 40 µM

CCOc1ccc(N=Cc2c(O)n(-c3cccc(C)n3)c(=O)c3ccccc23)cc1
pIC50: 4.83 | IC90: > 100 µM

Oc1cccc2ccc(/C=C/c3ccc(Br)s3)nc12
pIC50: 5.59 | IC90: > 100 µM | CC50: 32.4 µM

Cn1c(-c2ccc3c(c2)OCO3)cnc1NCc1cccc(Cl)c1
pIC50: 4.94 | IC90: 13.1 µM | CC50: > 40 µM

COc1ccc(N2CCN(c3nc(-c4cccs4)nc4ccccc34)CC2)cc1
IC90: > 100 µM
